From ChEMBL document CHEMBL3045592, “Studies of O,O-dimethyl α-(2,4-dichlorophenoxyacetoxy)ethylphosphonate (HW02) as a new herbicide. 1. Synthesis and herbicidal activity of HW02 and analogues as novel inhibitors of pyruvate dehydrogenase complex” (J Agric Food Chem, 2011)

Legend:
Brassica juncea = experiment: Post-emergence herbicidal activity against Brassica juncea assessed as growth inhibition at 450 ai g/ha after 20 days by green house test; type: functional
Digitaria sanguinalis [1] = experiment: Post-emergence herbicidal activity against Digitaria sanguinalis (hairy crabgrass) assessed as growth inhibition at 75 ai g/ha after 20 days by green house test; type: functional
Digitaria sanguinalis [2] = experiment: Pre-emergence herbicidal activity against Digitaria sanguinalis (hairy crabgrass) assessed as growth inhibition at 75 ai g/ha after 20 days by green house test; type: functional
Chenopodium album [3] = experiment: Post-emergence herbicidal activity against Chenopodium album assessed as growth inhibition at 450 ai g/ha after 20 days by green house test; type: functional
Chenopodium album [4] = experiment: Post-emergence herbicidal activity against Chenopodium album assessed as growth inhibition at 150 ai g/ha after 20 days by green house test; type: functional
Chenopodium album [5] = experiment: Post-emergence herbicidal activity against Chenopodium album assessed as growth inhibition at 75 ai g/ha after 20 days by green house test; type: functional
Chenopodium album [6] = experiment: Pre-emergence herbicidal activity against Chenopodium album assessed as growth inhibition at 450 ai g/ha after 20 days by green house test; type: functional
Chenopodium album [7] = experiment: Pre-emergence herbicidal activity against Chenopodium album assessed as growth inhibition at 150 ai g/ha after 20 days by green house test; type: functional
Chenopodium album [8] = experiment: Pre-emergence herbicidal activity against Chenopodium album assessed as growth inhibition at 75 ai g/ha after 20 days by green house test; type: functional
Amaranthus spinosus [9] = experiment: Post-emergence herbicidal activity against Amaranthus spinosus assessed as growth inhibition at 450 ai g/ha after 20 days by green house test; type: functional
Amaranthus spinosus [10] = experiment: Post-emergence herbicidal activity against Amaranthus spinosus assessed as growth inhibition at 75 ai g/ha after 20 days by green house test; type: functional
[11] = molecular target: T1, Pyruvate dehydrogenase complex (Pisum sativum) (UniProt P52902+P52904); experiment: Inhibition of PDHc in Pisum sativum Zhongwan-2 (pea) shoot mitochondria assessed as decrease in rate of NADH formation using sodium pyruvate as substrate at 0.1 microg/g preincubated for 25 min before substrate addition measured after 1 min by spectrophotometric assay; type: protein-complex assay; conditions: Lathyrus oleraceus
[12] = molecular target: T1, Pyruvate dehydrogenase complex (Pisum sativum); experiment: Inhibition of PDHc in Pisum sativum Zhongwan-2 (pea) shoot mitochondria assessed as decrease in rate of NADH formation using sodium pyruvate as substrate at 1 microg/g preincubated for 25 min before substrate addition measured after 1 min by spectrophotometric assay; type: protein-complex assay; conditions: Lathyrus oleraceus
[13] = molecular target: T1, Pyruvate dehydrogenase complex (Pisum sativum); experiment: Inhibition of PDHc in Pisum sativum Zhongwan-2 (pea) shoot mitochondria assessed as decrease in rate of NADH formation using sodium pyruvate as substrate at 10 microg/g preincubated for 25 min before substrate addition measured after 1 min by spectrophotometric assay; type: protein-complex assay; conditions: Lathyrus oleraceus
[14] = molecular target: T1, Pyruvate dehydrogenase complex (Pisum sativum); experiment: Inhibition of PDHc in Pisum sativum Zhongwan-2 (pea) shoot mitochondria assessed as decrease in rate of NADH formation using sodium pyruvate as substrate at 100 microg/g preincubated for 25 min before substrate addition measured after 1 min by spectrophotometric assay; type: protein-complex assay; conditions: Lathyrus oleraceus
[15] = molecular target: T1, Pyruvate dehydrogenase complex (Pisum sativum); experiment: Inhibition of PDHc in Pisum sativum Zhongwan-2 (pea) shoot mitochondria assessed as decrease in rate of NADH formation using sodium pyruvate as substrate at 1000 microg/g preincubated for 25 min before substrate addition measured after 1 min by spectrophotometric assay; type: protein-complex assay; conditions: Lathyrus oleraceus
Echinochloa crus-galli [16] = experiment: Post-emergence herbicidal activity against Echinochloa crus-galli (barnyard grass) assessed as growth inhibition at 450 ai g/ha after 20 days by green house test; type: functional
Abutilon theophrasti [17] = experiment: Post-emergence herbicidal activity against Abutilon theophrasti (velvetleaf) assessed as growth inhibition at 75 ai g/ha after 20 days by green house test; type: functional
Abutilon theophrasti [18] = experiment: Pre-emergence herbicidal activity against Abutilon theophrasti (velvetleaf) assessed as growth inhibition at 450 ai g/ha after 20 days by green house test; type: functional
Abutilon theophrasti [19] = experiment: Pre-emergence herbicidal activity against Abutilon theophrasti (velvetleaf) assessed as growth inhibition at 75 ai g/ha after 20 days by green house test; type: functional
Amaranthus retroflexus = experiment: Post-emergence herbicidal activity against Amaranthus retroflexus assessed as growth inhibition at 1500 ai g/ha after 20 days by green house test; type: functional
[20] = system: Brassica rapa subsp. oleifera; experiment: Post-emergence herbicidal activity against Brassica rapa subsp. oleifera Si Yue Man assessed as growth inhibition at 1500 ai g/ha after 20 days by green house test; type: functional
Digitaria sanguinalis [21] = experiment: Post-emergence herbicidal activity against Digitaria sanguinalis (hairy crabgrass) assessed as growth inhibition at 1500 ai g/ha after 20 days by green house test; type: functional
Echinochloa crus-galli [22] = experiment: Post-emergence herbicidal activity against Echinochloa crus-galli (barnyard grass) assessed as growth inhibition at 1500 ai g/ha after 20 days by green house test; type: functional
[23] = system: Brassica rapa subsp. oleifera; experiment: Pre-emergence herbicidal activity against Brassica rapa subsp. oleifera Si Yue Man assessed as growth inhibition at 1500 ai g/ha after 20 days by green house test; type: functional
Digitaria sanguinalis [24] = experiment: Pre-emergence herbicidal activity against Digitaria sanguinalis (hairy crabgrass) assessed as growth inhibition at 1500 ai g/ha after 20 days by green house test; type: functional
Echinochloa crus-galli [25] = experiment: Pre-emergence herbicidal activity against Echinochloa crus-galli (barnyard grass) assessed as growth inhibition at 1500 ai g/ha after 20 days by green house test; type: functional
Amaranthus spinosus [26] = experiment: Pre-emergence herbicidal activity against Amaranthus spinosus assessed as growth inhibition at 450 ai g/ha after 20 days by green house test; type: functional
Amaranthus spinosus [27] = experiment: Pre-emergence herbicidal activity against Amaranthus spinosus assessed as growth inhibition at 150 ai g/ha after 20 days by green house test; type: functional
Amaranthus spinosus [28] = experiment: Pre-emergence herbicidal activity against Amaranthus spinosus assessed as growth inhibition at 75 ai g/ha after 20 days by green house test; type: functional
[29] = Toxicity against Oryza sativa (rice) assessed as growth inhibition at 450 ai g/ha post-emergent application measured after 20 days by green house crop selectivity test; type: organism-based; conditions: in vivo, read-out: GI
Abutilon theophrasti [30] = experiment: Post-emergence herbicidal activity against Abutilon theophrasti (velvetleaf) assessed as growth inhibition at 150 ai g/ha after 20 days by green house test; type: functional
Setaria viridis [31] = experiment: Post-emergence herbicidal activity against Setaria viridis (green foxtail) assessed as growth inhibition at 450 ai g/ha after 20 days by green house test; type: functional
Setaria viridis [32] = experiment: Post-emergence herbicidal activity against Setaria viridis (green foxtail) assessed as growth inhibition at 75 ai g/ha after 20 days by green house test; type: functional
Setaria viridis [33] = experiment: Pre-emergence herbicidal activity against Setaria viridis (green foxtail) assessed as growth inhibition at 450 ai g/ha after 20 days by green house test; type: functional
Setaria viridis [34] = experiment: Pre-emergence herbicidal activity against Setaria viridis (green foxtail) assessed as growth inhibition at 150 ai g/ha after 20 days by green house test; type: functional
Setaria viridis [35] = experiment: Pre-emergence herbicidal activity against Setaria viridis (green foxtail) assessed as growth inhibition at 75 ai g/ha after 20 days by green house test; type: functional
Digitaria sanguinalis [36] = experiment: Post-emergence herbicidal activity against Digitaria sanguinalis (hairy crabgrass) assessed as growth inhibition at 450 ai g/ha after 20 days by green house test; type: functional
Digitaria sanguinalis [37] = experiment: Post-emergence herbicidal activity against Digitaria sanguinalis (hairy crabgrass) assessed as growth inhibition at 150 ai g/ha after 20 days by green house test; type: functional

Row | SMILES | growth inhibition (GI) (Brassica juncea) [%] | growth inhibition (GI) (Digitaria sanguinalis [1]) [%] | growth inhibition (GI) (Digitaria sanguinalis [2]) [%] | growth inhibition (GI) (Chenopodium album [3]) [%] | growth inhibition (GI) (Chenopodium album [4]) [%] | growth inhibition (GI) (Chenopodium album [5]) [%] | growth inhibition (GI) (Chenopodium album [6]) [%] | growth inhibition (GI) (Chenopodium album [7]) [%] | growth inhibition (GI) (Chenopodium album [8]) [%] | growth inhibition (GI) (Amaranthus spinosus [9]) [%] | growth inhibition (GI) (Amaranthus spinosus [10]) [%] | inhibition [11] [%] | inhibition [12] [%] | inhibition [13] [%] | inhibition [14] [%] | inhibition [15] [%] | growth inhibition (GI) (Echinochloa crus-galli [16]) [%] | growth inhibition (GI) (Abutilon theophrasti [17]) [%] | growth inhibition (GI) (Abutilon theophrasti [18]) [%] | growth inhibition (GI) (Abutilon theophrasti [19]) [%] | other results
1 | O=C(O)COc1ccc(Cl)cc1Cl [2,4-DICHLOROPHENOXYACETIC ACID] | 100 | 0 | 0 | 100 | 92.5 | 72.5 | 0 | 0 | 0 | 92.5 | 60 | 8.8 | 12.9 | 18.5 | 27.8 | 48.1 | 35 | 72.5 | 0 | 0 | growth inhibition (GI) (Amaranthus retroflexus): 90%; growth inhibition (GI) [20]: 90%; growth inhibition (GI) (Digitaria sanguinalis [21]): 50%; growth inhibition (GI) (Echinochloa crus-galli [22]): 50%; growth inhibition (GI) [23]: 90%; growth inhibition (GI) (Digitaria sanguinalis [24]): 90%; growth inhibition (GI) (Echinochloa crus-galli [25]): 75%; growth inhibition (GI) (Amaranthus spinosus [26]): 0%; growth inhibition (GI) (Amaranthus spinosus [27]): 0%; growth inhibition (GI) (Amaranthus spinosus [28]): 0%; inhibition at 480 h [29]: 37.5%; growth inhibition (GI) (Abutilon theophrasti [30]): 100%; growth inhibition (GI) (Setaria viridis [31]): 0%; growth inhibition (GI) (Setaria viridis [32]): 0%; growth inhibition (GI) (Setaria viridis [33]): 67.5%; growth inhibition (GI) (Setaria viridis [34]): 5.5%; growth inhibition (GI) (Setaria viridis [35]): 0%; growth inhibition (GI) (Digitaria sanguinalis [36]): 0%; growth inhibition (GI) (Digitaria sanguinalis [37]): 0%
2 | COP(=O)(COC(=O)COc1cccc(C(F)(F)F)c1)OC | 82.5 | 0 | 0 | 82.5 | 42.5 | 32.5 | 0 | 0 | 0 | 57.5 | 0 | 11.5 | 22.9 | 31.1 | 49.2 | 60.7 | 0 | 27.5 | 0 | 0 | growth inhibition (GI) (Amaranthus retroflexus): <=50%; growth inhibition (GI) [20]: 90%; growth inhibition (GI) (Digitaria sanguinalis [21]): <=50%; growth inhibition (GI) (Echinochloa crus-galli [22]): <=50%; growth inhibition (GI) [23]: 75%; growth inhibition (GI) (Digitaria sanguinalis [24]): 75%; growth inhibition (GI) (Echinochloa crus-galli [25]): 50%; growth inhibition (GI) (Amaranthus spinosus [26]): 0%; growth inhibition (GI) (Amaranthus spinosus [27]): 0%; growth inhibition (GI) (Amaranthus spinosus [28]): 0%; inhibition at 480 h [29]: 32.5%; growth inhibition (GI) (Abutilon theophrasti [30]): 42.5%; growth inhibition (GI) (Setaria viridis [31]): 0%; growth inhibition (GI) (Setaria viridis [32]): 0%; growth inhibition (GI) (Setaria viridis [33]): 35%; growth inhibition (GI) (Setaria viridis [34]): 0%; growth inhibition (GI) (Setaria viridis [35]): 0%; growth inhibition (GI) (Digitaria sanguinalis [36]): 0%; growth inhibition (GI) (Digitaria sanguinalis [37]): 0%
3 | COP(=O)(OC)C(C)OC(=O)COc1ccc(Cl)cc1Cl (configuration not stated) [CLACYFOS] | 100 | 0 | 0 | 100 | 96 | 92.5 | 0 | 0 | 0 | 100 | 90 | 31.1 | 44.3 | 50.8 | 59 | 73.8 | 35 | 97.5 | 0 | 0 | growth inhibition (GI) (Amaranthus retroflexus): 90%; growth inhibition (GI) [20]: 90%; growth inhibition (GI) (Digitaria sanguinalis [21]): 50%; growth inhibition (GI) (Echinochloa crus-galli [22]): 50%; growth inhibition (GI) [23]: 90%; growth inhibition (GI) (Digitaria sanguinalis [24]): 75%; growth inhibition (GI) (Echinochloa crus-galli [25]): 75%; growth inhibition (GI) (Amaranthus spinosus [26]): 0%; growth inhibition (GI) (Amaranthus spinosus [27]): 0%; growth inhibition (GI) (Amaranthus spinosus [28]): 0%; inhibition at 480 h [29]: 0%; growth inhibition (GI) (Abutilon theophrasti [30]): 100%; growth inhibition (GI) (Setaria viridis [31]): 0%; growth inhibition (GI) (Setaria viridis [32]): 0%; growth inhibition (GI) (Setaria viridis [33]): 35%; growth inhibition (GI) (Setaria viridis [34]): 0%; growth inhibition (GI) (Setaria viridis [35]): 0%; growth inhibition (GI) (Digitaria sanguinalis [36]): 37.5%; growth inhibition (GI) (Digitaria sanguinalis [37]): 0%
